From ChEMBL document CHEMBL5614421, “Structure-activity relationship study of Pseudellone C as anti-glioma agents by targeting TNF/TNFR signaling pathway” (Eur J Med Chem, 2024)
The source made the active and inactive calls. The rule behind the calls is not given here.

Experiments:
[1] = tested on: U-87 MG; test: Induction of apoptosis in human U-87 MG cells assessed as necrotic cells at 20 uM incubated for 24 hrs by Annexin V-APC/7-AAD staining based flow cytometric analysis (reference value: 1 %); type: functional, U-87MG ATCC
[2] = tested on: U-87 MG; test: Induction of apoptosis in human U-87 MG cells assessed as necrotic cells at 20 uM incubated for 48 hrs by Annexin V-APC/7-AAD staining based flow cytometric analysis (reference value: 1 %); type: functional, U-87MG ATCC
[3] = tested on: U-87 MG; test: Induction of apoptosis in human U-87 MG cells assessed as viable cells at 20 uM incubated for 12 hrs by Annexin V-APC/7-AAD staining based flow cytometric analysis (reference value: 94.6 %); type: functional, U-87MG ATCC; conditions: read-out: Activity
[4] = tested on: U-87 MG; test: Induction of apoptosis in human U-87 MG cells assessed as early apoptotic cells at 20 uM incubated for 12 hrs by Annexin V-APC/7-AAD staining based flow cytometric analysis (reference value: 0.94 %); type: functional, U-87MG ATCC
[5] = tested on: U-87 MG; test: Induction of apoptosis in human U-87 MG cells assessed as early apoptotic cells at 5 uM incubated for 24 hrs by Annexin V-APC/7-AAD staining based flow cytometric analysis (reference value: 1.59 %); type: functional, U-87MG ATCC
[6] = tested on: LN-229; test: Induction of apoptosis in human LN-229 cells assessed as late apoptotic cells at 5 uM incubated for 24 hrs by Annexin V-APC/7-AAD staining based flow cytometric analysis (reference value: 3.56 %); type: functional
[7] = tested on: U-87 MG; test: Induction of apoptosis in human U-87 MG cells assessed as viable cells at 20 uM incubated for 24 hrs in presence of R7050 by Annexin V-APC/7-AAD staining based flow cytometric analysis (reference value: 85 %); type: functional, U-87MG ATCC; conditions: read-out: Activity
[8] = tested on: LN-229; test: Induction of apoptosis in human LN-229 cells assessed as viable cells at 20 uM incubated for 24 hrs by Annexin V-APC/7-AAD staining based flow cytometric analysis (reference value: 91.7 %); type: functional; conditions: read-out: Activity
[9] = tested on: U-87 MG; test: Induction of apoptosis in human U-87 MG cells assessed as early apoptotic cells at 20 uM incubated for 24 hrs by Annexin V-APC/7-AAD staining based flow cytometric analysis (reference value: 1.59 %); type: functional, U-87MG ATCC
[10] = tested on: LN-229; test: Induction of apoptosis in human LN-229 cells assessed as necrotic cells at 20 uM incubated for 24 hrs by Annexin V-APC/7-AAD staining based flow cytometric analysis (reference value: 0.7 %); type: functional
[11] = tested on: LN-229; test: Induction of apoptosis in human LN-229 cells at 20 uM incubated for 24 hrs by Annexin V-APC/7-AAD staining based flow cytometric analysis relative to control; type: functional
[12] = tested on: LN-229; test: Induction of apoptosis in human LN-229 cells assessed as necrotic cells at 10 uM incubated for 24 hrs by Annexin V-APC/7-AAD staining based flow cytometric analysis (reference value: 0.56 %); type: functional
[13] = tested on: U-87 MG; test: Induction of apoptosis in human U-87 MG cells assessed as upregulation of TNF-alpha gene expression incubated for 24 hrs by transcriptome sequencing analysis; type: functional, cell-based; conditions: U-87MG ATCC
[14] = tested on: U-87 MG; test: Induction of apoptosis in human U-87 MG cells assessed as early apoptotic cells at 10 uM incubated for 24 hrs by Annexin V-APC/7-AAD staining based flow cytometric analysis (reference value: 1.59 %); type: functional, U-87MG ATCC
[15] = tested on: U-87 MG; test: Induction of apoptosis in human U-87 MG cells assessed as late apoptotic cells at 20 uM incubated for 24 hrs by Annexin V-APC/7-AAD staining based flow cytometric analysis (reference value: 4.22 %); type: functional, U-87MG ATCC
[16] = tested on: LN-229; test: Induction of apoptosis in human LN-229 cells assessed as necrotic cells at 20 uM incubated for 24 hrs by Annexin V-APC/7-AAD staining based flow cytometric analysis (reference value: 0.56 %); type: functional
[17] = tested on: U-87 MG; test: Induction of apoptosis in human U-87 MG cells at 20 uM incubated for 24 hrs by Annexin V-APC/7-AAD staining based flow cytometric analysis (reference value: 5.67 +/- 1.49 %); type: functional, U-87MG ATCC

## CCCCCCCNC(=O)[C@H](Cc1c[nH]c2ccccc12)NC(=O)C(C)(c1c[nH]c2ccccc12)c1c[nH]c2ccccc12
[1]
  Activity: 1.37%
[2]
  Activity: 4.65%
[3]
  viability at 20 µM: 93.8%
[4]
  Activity: 1.53%
[5]
  Activity: 2.06%
[6]
  Activity: 3.7%
[7]
  viability at 20 µM: 87.6%
[8]
  viability at 20 µM: 81.7%
[9]
  Activity: 13.7%
[10]
  Activity: 0.87%
[11]
  Activity: 31.44%
[12]
  Activity: 1.95%
[13]
  Activity: Active
[14]
  Activity: 4.46%
[15]
  Activity: 11.6%
[16]
  Activity: 1.42%
[17]
  Activity: 13.95%
